{
  "source": "ChEMBL document CHEMBL3046701",
  "about": "“Synthesis and biological activities of some N-hydroxymethylene and N-methoxymethylene thiazines” (Med Chem Res, 2007)",
  "key": {"[1]": {"experiment": "Toxicity in po dosed Mus musculus albino (mouse)", "assay_type": "organism-based", "details": "in vivo"}, "Escherichia coli [2]": {"tested_on": "Escherichia coli", "experiment": "Antibacterial activity against Escherichia coli at 25 ug/ml after 24 hr by disk diffusion method", "assay_type": "functional", "details": "read-out: IZ"}, "Bacillus subtilis [3]": {"tested_on": "Bacillus subtilis", "experiment": "Antibacterial activity against Bacillus subtilis at 25 ug/ml after 24 hr by disk diffusion method", "assay_type": "functional", "details": "read-out: IZ"}, "Staphylococcus aureus [4]": {"tested_on": "Staphylococcus aureus", "experiment": "Antibacterial activity against Staphylococcus aureus at 25 ug/ml after 24 hr by disk diffusion method", "assay_type": "functional", "details": "read-out: IZ"}, "Penicillium [5]": {"tested_on": "Penicillium", "experiment": "Antifungal activity against Penicillium inclobium at 25 ug/ml after 72 to 96 hr by disk diffusion method", "assay_type": "functional", "details": "read-out: IZ"}, "Aspergillus flavus [6]": {"tested_on": "Aspergillus flavus", "experiment": "Antifungal activity against Aspergillus flavus at 25 ug/ml after 72 to 96 hr by disk diffusion method", "assay_type": "functional", "details": "read-out: IZ"}, "Klebsiella pneumoniae [7]": {"tested_on": "Klebsiella pneumoniae", "experiment": "Antibacterial activity against Klebsiella pneumoniae at 25 ug/ml after 24 hr by disk diffusion method", "assay_type": "functional", "details": "read-out: IZ"}, "Klebsiella pneumoniae [8]": {"tested_on": "Klebsiella pneumoniae", "experiment": "Antibacterial activity against Klebsiella pneumoniae at 100 ug/ml after 24 hr by disk diffusion method", "assay_type": "functional", "details": "read-out: IZ"}, "Bacillus subtilis [9]": {"tested_on": "Bacillus subtilis", "experiment": "Antibacterial activity against Bacillus subtilis at 100 ug/ml after 24 hr by disk diffusion method", "assay_type": "functional", "details": "read-out: IZ"}, "Escherichia coli [10]": {"tested_on": "Escherichia coli", "experiment": "Antibacterial activity against Escherichia coli at 100 ug/ml after 24 hr by disk diffusion method", "assay_type": "functional", "details": "read-out: IZ"}, "Penicillium [11]": {"tested_on": "Penicillium", "experiment": "Antifungal activity against Penicillium inclobium at 100 ug/ml after 72 to 96 hr by disk diffusion method", "assay_type": "functional", "details": "read-out: IZ"}, "Staphylococcus aureus [12]": {"tested_on": "Staphylococcus aureus", "experiment": "Antibacterial activity against Staphylococcus aureus at 100 ug/ml after 24 hr by disk diffusion method", "assay_type": "functional", "details": "read-out: IZ"}, "Aspergillus flavus [13]": {"tested_on": "Aspergillus flavus", "experiment": "Antifungal activity against Aspergillus flavus at 100 ug/ml after 72 to 96 hr by disk diffusion method", "assay_type": "functional", "details": "read-out: IZ"}, "Staphylococcus aureus [14]": {"tested_on": "Staphylococcus aureus", "experiment": "Antibacterial activity against Staphylococcus aureus after 24 hr by disk diffusion method", "assay_type": "functional"}, "Bacillus subtilis [15]": {"tested_on": "Bacillus subtilis", "experiment": "Antibacterial activity against Bacillus subtilis after 24 hr by disk diffusion method", "assay_type": "functional"}, "Escherichia coli [16]": {"tested_on": "Escherichia coli", "experiment": "Antibacterial activity against Escherichia coli after 24 hr by disk diffusion method", "assay_type": "functional"}, "Klebsiella pneumoniae [17]": {"tested_on": "Klebsiella pneumoniae", "experiment": "Antibacterial activity against Klebsiella pneumoniae after 24 hr by disk diffusion method", "assay_type": "functional"}, "Penicillium [18]": {"tested_on": "Penicillium", "experiment": "Antifungal activity against Penicillium inclobium after 72 to 96 hr by disk diffusion method", "assay_type": "functional"}, "Aspergillus flavus [19]": {"tested_on": "Aspergillus flavus", "experiment": "Antifungal activity against Aspergillus flavus after 72 to 96 hr by disk diffusion method", "assay_type": "functional"}, "Escherichia coli [20]": {"tested_on": "Escherichia coli", "experiment": "Antibacterial activity against Escherichia coli at 50 ug/ml after 24 hr by disk diffusion method", "assay_type": "functional", "details": "read-out: IZ"}, "Penicillium [21]": {"tested_on": "Penicillium", "experiment": "Antifungal activity against Penicillium inclobium at 50 ug/ml after 72 to 96 hr by disk diffusion method", "assay_type": "functional", "details": "read-out: IZ"}, "Aspergillus flavus [22]": {"tested_on": "Aspergillus flavus", "experiment": "Antifungal activity against Aspergillus flavus at 50 ug/ml after 72 to 96 hr by disk diffusion method", "assay_type": "functional", "details": "read-out: IZ"}, "Staphylococcus aureus [23]": {"tested_on": "Staphylococcus aureus", "experiment": "Antibacterial activity against Staphylococcus aureus at 50 ug/ml after 24 hr by disk diffusion method", "assay_type": "functional", "details": "read-out: IZ"}, "Bacillus subtilis [24]": {"tested_on": "Bacillus subtilis", "experiment": "Antibacterial activity against Bacillus subtilis at 50 ug/ml after 24 hr by disk diffusion method", "assay_type": "functional", "details": "read-out: IZ"}, "Klebsiella pneumoniae [25]": {"tested_on": "Klebsiella pneumoniae", "experiment": "Antibacterial activity against Klebsiella pneumoniae at 50 ug/ml after 24 hr by disk diffusion method", "assay_type": "functional", "details": "read-out: IZ"}},
  "data": [
    {"molecule": "O=S1(=O)CC(c2ccc(Cl)cc2)NC(c2ccc(Cl)cc2)C1", "note": "(stereo unspecified)", "values": [
      {"measurement": "LD50", "setting": "[1]", "value": "≤ 1000", "unit": "mg/kg"}
    ]},
    {"molecule": "O=S1(=O)CC(c2ccc(Cl)cc2)N(CO)C(c2ccc(Cl)cc2)C1", "note": "(stereo unspecified)", "values": [
      {"measurement": "LD50", "setting": "[1]", "value": "≤ 1000", "unit": "mg/kg"}
    ]},
    {"molecule": "COCN1C(c2ccc(Cl)cc2)CS(=O)(=O)CC1c1ccc(Cl)cc1", "note": "(stereo unspecified)", "values": [
      {"measurement": "zone of inhibition at 25 µg/mL", "setting": "Escherichia coli [2]", "value": 16, "unit": "mm"},
      {"measurement": "zone of inhibition at 25 µg/mL", "setting": "Bacillus subtilis [3]", "value": 15, "unit": "mm"},
      {"measurement": "zone of inhibition at 25 µg/mL", "setting": "Staphylococcus aureus [4]", "value": 15, "unit": "mm"},
      {"measurement": "zone of inhibition at 25 µg/mL", "setting": "Penicillium [5]", "value": 14, "unit": "mm"},
      {"measurement": "zone of inhibition at 25 µg/mL", "setting": "Aspergillus flavus [6]", "value": 12, "unit": "mm"},
      {"measurement": "zone of inhibition at 25 µg/mL", "setting": "Klebsiella pneumoniae [7]", "value": 16, "unit": "mm"}
    ]},
    {"molecule": "COCN1C(c2ccccc2)CS(=O)(=O)CC1c1ccccc1", "note": "(stereo unspecified)", "values": [
      {"measurement": "zone of inhibition at 100 µg/mL", "setting": "Klebsiella pneumoniae [8]", "value": 7, "unit": "mm"},
      {"measurement": "zone of inhibition at 100 µg/mL", "setting": "Bacillus subtilis [9]", "value": 6, "unit": "mm"},
      {"measurement": "zone of inhibition at 100 µg/mL", "setting": "Escherichia coli [10]", "value": 9, "unit": "mm"},
      {"measurement": "zone of inhibition at 100 µg/mL", "setting": "Penicillium [11]", "value": 7, "unit": "mm"},
      {"measurement": "zone of inhibition at 100 µg/mL", "setting": "Staphylococcus aureus [12]", "value": 7, "unit": "mm"},
      {"measurement": "zone of inhibition at 100 µg/mL", "setting": "Aspergillus flavus [13]", "value": 6, "unit": "mm"}
    ]},
    {"molecule": "CCn1cc(C(=O)O)c(=O)c2cc(F)c(N3CCNCC3)cc21", "note": "[NORFLOXACIN]", "values": [
      {"measurement": "inhibition zone (IZ)", "setting": "Staphylococcus aureus [14]", "value": 22, "unit": "mm"},
      {"measurement": "inhibition zone (IZ)", "setting": "Bacillus subtilis [15]", "value": 22, "unit": "mm"},
      {"measurement": "inhibition zone (IZ)", "setting": "Escherichia coli [16]", "value": 22, "unit": "mm"},
      {"measurement": "inhibition zone (IZ)", "setting": "Klebsiella pneumoniae [17]", "value": 22, "unit": "mm"}
    ]},
    {"molecule": "COC1=CC(=O)C[C@@H](C)[C@]12Oc1c(Cl)c(OC)cc(OC)c1C2=O", "note": "[GRISEOFULVIN]", "values": [
      {"measurement": "inhibition zone (IZ)", "setting": "Penicillium [18]", "value": 22, "unit": "mm"},
      {"measurement": "inhibition zone (IZ)", "setting": "Aspergillus flavus [19]", "value": 22, "unit": "mm"}
    ]},
    {"molecule": "COCN1C(c2ccc(OC)cc2)CS(=O)(=O)CC1c1ccc(OC)cc1", "note": "(stereo unspecified)", "values": [
      {"measurement": "zone of inhibition at 50 µg/mL", "setting": "Escherichia coli [20]", "value": 11, "unit": "mm"},
      {"measurement": "zone of inhibition at 50 µg/mL", "setting": "Penicillium [21]", "value": 11, "unit": "mm"},
      {"measurement": "zone of inhibition at 50 µg/mL", "setting": "Aspergillus flavus [22]", "value": 10, "unit": "mm"},
      {"measurement": "zone of inhibition at 50 µg/mL", "setting": "Staphylococcus aureus [23]", "value": 12, "unit": "mm"},
      {"measurement": "zone of inhibition at 50 µg/mL", "setting": "Bacillus subtilis [24]", "value": 12, "unit": "mm"},
      {"measurement": "zone of inhibition at 50 µg/mL", "setting": "Klebsiella pneumoniae [25]", "value": 11, "unit": "mm"}
    ]}
  ]
}
